In test [1] the target is PDGFRB (Homo sapiens, UniProt P09619). The following applies: 10 μM.
The target of test [2] is MET(Y1235D) (Homo sapiens, UniProt P08581, Y1235D). As to the kind of experiment: biochemical. To be noted: read-out: Percent control.
In test [3] the target is ROS1 (Homo sapiens, UniProt P08922). As to the kind of experiment: biochemical. The following applies: read-out: Percent control.
For test [4], the target named is KIT(V559D) (Homo sapiens, UniProt P10721, V559D). As to the kind of experiment: biochemical. To be noted: read-out: Percent control.
The target of test [5] is FGFR2 (Homo sapiens, UniProt P21802). In words: biochemical. To be noted: read-out: Percent control.
In test [6] the target is T1, FLT3 (Homo sapiens, UniProt P36888).
T1 sequence (P36888 27-993): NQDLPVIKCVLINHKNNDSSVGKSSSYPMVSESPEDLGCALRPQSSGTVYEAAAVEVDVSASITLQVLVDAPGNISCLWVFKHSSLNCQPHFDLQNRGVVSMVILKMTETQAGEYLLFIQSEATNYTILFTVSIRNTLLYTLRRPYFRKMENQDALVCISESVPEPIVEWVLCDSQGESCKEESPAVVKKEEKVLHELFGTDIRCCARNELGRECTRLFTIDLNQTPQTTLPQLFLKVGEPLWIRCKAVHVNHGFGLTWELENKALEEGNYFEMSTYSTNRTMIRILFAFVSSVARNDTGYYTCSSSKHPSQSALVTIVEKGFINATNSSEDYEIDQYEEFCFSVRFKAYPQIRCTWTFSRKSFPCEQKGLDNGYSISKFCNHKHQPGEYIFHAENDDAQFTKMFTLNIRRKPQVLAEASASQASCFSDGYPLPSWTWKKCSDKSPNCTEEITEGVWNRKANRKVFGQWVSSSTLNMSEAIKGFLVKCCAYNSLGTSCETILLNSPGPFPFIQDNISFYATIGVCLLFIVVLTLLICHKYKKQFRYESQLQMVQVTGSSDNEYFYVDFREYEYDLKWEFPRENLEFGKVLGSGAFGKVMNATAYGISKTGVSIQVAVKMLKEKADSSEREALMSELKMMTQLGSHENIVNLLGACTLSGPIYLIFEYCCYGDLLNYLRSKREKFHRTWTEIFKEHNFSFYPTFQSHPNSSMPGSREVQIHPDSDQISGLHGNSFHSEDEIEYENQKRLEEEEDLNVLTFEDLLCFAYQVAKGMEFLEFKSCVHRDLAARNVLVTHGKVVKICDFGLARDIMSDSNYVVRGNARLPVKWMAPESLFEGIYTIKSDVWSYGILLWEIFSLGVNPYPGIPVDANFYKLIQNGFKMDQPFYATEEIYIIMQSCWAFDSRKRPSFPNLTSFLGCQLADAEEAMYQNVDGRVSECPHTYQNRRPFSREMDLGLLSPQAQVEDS
In words: biochemical. The following applies: read-out: Percent control.

Test [7] concerns the target T2, EPHA6 (Homo sapiens, UniProt Q9UF33).
T2 sequence (Q9UF33 23-1036): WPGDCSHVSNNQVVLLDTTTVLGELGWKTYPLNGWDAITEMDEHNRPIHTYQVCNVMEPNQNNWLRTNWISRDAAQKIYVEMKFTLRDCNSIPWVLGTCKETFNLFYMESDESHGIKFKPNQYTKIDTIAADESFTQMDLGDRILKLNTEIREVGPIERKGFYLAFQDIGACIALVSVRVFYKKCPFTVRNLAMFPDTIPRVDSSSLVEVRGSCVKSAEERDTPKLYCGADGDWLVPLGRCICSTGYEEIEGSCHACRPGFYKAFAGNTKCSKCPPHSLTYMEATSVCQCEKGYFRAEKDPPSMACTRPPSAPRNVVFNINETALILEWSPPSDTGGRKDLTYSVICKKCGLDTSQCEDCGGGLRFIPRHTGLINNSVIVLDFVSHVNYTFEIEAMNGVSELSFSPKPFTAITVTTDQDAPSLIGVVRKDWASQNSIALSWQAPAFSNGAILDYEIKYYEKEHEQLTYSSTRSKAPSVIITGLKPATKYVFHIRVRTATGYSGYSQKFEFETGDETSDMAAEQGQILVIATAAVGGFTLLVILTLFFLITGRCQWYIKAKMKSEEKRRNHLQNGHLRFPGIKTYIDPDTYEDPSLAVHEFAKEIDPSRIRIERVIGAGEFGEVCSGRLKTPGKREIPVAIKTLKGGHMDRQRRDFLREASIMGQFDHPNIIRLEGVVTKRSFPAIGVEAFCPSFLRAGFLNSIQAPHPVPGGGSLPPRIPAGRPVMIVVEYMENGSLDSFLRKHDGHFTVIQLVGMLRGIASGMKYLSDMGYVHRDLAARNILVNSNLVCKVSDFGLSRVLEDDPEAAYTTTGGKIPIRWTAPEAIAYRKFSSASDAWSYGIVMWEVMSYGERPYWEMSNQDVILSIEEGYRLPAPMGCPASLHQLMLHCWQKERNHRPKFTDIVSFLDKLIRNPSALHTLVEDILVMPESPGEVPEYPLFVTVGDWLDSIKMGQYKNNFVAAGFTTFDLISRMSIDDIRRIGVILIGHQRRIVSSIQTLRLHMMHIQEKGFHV
As to the kind of experiment: biochemical. The following applies: read-out: Percent control.

FGFR2, sequence (P21802 22-821): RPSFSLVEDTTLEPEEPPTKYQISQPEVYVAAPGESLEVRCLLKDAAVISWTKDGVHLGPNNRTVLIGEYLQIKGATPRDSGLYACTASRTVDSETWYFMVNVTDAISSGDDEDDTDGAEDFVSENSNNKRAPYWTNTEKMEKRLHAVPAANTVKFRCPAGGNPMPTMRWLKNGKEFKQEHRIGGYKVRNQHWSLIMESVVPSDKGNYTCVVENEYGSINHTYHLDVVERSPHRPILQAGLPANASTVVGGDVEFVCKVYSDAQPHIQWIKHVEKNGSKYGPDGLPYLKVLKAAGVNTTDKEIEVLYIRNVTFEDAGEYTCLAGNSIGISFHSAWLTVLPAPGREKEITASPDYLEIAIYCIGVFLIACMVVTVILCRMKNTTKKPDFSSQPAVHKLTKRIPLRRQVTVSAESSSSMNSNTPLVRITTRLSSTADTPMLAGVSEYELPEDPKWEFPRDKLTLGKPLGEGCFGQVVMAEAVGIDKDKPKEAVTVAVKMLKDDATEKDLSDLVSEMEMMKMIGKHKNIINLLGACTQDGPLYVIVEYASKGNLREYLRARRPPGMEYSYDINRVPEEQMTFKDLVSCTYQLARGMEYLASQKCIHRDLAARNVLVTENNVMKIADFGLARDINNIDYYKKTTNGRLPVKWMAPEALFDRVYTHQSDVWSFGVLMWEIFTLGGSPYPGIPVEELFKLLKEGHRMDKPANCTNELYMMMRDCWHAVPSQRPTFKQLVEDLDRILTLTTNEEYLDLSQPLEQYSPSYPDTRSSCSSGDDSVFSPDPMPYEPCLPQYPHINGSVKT
MET(Y1235D), sequence (P08581 25-1390 Y1235D): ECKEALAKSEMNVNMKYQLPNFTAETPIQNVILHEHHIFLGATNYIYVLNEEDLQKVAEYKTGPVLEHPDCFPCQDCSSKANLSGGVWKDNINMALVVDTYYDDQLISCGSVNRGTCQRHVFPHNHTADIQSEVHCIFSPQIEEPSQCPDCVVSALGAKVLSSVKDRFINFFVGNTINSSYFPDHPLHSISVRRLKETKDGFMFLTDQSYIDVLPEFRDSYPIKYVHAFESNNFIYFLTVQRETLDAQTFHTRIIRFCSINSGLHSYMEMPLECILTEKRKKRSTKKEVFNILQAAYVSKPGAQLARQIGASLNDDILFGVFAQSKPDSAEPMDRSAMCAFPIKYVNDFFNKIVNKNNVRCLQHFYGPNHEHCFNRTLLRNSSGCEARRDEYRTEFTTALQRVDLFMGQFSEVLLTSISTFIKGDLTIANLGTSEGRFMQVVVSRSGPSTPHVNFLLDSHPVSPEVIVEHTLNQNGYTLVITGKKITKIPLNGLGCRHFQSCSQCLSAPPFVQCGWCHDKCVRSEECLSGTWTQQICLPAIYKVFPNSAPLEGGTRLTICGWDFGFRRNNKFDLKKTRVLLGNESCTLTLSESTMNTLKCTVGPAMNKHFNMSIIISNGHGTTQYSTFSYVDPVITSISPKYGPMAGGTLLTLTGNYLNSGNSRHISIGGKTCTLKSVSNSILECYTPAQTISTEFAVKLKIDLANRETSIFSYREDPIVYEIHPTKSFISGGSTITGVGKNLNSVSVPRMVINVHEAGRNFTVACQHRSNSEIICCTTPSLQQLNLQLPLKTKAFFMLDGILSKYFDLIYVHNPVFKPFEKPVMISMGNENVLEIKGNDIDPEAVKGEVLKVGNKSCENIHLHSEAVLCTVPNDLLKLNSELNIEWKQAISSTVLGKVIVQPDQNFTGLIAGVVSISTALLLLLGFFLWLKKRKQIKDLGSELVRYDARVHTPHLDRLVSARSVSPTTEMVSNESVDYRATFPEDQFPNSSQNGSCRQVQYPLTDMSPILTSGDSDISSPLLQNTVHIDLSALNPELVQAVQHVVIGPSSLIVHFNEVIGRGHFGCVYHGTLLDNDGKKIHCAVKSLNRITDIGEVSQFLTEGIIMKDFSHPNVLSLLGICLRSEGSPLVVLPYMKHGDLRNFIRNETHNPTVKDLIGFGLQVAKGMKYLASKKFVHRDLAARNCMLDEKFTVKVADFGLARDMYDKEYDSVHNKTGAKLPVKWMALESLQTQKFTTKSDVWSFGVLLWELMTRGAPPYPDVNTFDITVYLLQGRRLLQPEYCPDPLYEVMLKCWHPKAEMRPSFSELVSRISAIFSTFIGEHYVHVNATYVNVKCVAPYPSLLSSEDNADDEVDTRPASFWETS
KIT(V559D), sequence (P10721 26-976 V559D): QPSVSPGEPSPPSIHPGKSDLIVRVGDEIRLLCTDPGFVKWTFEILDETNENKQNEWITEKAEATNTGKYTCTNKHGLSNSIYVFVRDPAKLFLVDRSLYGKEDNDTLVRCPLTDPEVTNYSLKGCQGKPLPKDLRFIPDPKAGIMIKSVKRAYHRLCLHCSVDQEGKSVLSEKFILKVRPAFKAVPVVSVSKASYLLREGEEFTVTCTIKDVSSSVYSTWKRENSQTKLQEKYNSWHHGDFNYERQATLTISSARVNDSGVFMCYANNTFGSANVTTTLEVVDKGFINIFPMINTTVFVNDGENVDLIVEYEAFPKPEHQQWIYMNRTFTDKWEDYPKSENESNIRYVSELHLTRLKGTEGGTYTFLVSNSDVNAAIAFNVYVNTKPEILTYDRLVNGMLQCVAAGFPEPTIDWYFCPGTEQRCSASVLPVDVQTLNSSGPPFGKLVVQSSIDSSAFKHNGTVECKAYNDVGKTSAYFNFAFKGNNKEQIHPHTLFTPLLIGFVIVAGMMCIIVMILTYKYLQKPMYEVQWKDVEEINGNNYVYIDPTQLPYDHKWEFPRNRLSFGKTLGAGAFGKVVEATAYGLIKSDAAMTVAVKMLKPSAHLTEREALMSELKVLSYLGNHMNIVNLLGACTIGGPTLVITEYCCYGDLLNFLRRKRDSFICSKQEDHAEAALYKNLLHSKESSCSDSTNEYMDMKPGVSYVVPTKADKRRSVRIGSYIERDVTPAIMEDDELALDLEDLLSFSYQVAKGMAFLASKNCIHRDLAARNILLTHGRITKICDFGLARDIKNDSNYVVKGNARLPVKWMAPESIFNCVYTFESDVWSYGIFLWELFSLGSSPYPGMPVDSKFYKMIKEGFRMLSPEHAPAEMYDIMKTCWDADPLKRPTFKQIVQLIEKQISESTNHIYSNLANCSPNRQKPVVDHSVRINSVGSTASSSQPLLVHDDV
PDGFRB, sequence (P09619 33-1106): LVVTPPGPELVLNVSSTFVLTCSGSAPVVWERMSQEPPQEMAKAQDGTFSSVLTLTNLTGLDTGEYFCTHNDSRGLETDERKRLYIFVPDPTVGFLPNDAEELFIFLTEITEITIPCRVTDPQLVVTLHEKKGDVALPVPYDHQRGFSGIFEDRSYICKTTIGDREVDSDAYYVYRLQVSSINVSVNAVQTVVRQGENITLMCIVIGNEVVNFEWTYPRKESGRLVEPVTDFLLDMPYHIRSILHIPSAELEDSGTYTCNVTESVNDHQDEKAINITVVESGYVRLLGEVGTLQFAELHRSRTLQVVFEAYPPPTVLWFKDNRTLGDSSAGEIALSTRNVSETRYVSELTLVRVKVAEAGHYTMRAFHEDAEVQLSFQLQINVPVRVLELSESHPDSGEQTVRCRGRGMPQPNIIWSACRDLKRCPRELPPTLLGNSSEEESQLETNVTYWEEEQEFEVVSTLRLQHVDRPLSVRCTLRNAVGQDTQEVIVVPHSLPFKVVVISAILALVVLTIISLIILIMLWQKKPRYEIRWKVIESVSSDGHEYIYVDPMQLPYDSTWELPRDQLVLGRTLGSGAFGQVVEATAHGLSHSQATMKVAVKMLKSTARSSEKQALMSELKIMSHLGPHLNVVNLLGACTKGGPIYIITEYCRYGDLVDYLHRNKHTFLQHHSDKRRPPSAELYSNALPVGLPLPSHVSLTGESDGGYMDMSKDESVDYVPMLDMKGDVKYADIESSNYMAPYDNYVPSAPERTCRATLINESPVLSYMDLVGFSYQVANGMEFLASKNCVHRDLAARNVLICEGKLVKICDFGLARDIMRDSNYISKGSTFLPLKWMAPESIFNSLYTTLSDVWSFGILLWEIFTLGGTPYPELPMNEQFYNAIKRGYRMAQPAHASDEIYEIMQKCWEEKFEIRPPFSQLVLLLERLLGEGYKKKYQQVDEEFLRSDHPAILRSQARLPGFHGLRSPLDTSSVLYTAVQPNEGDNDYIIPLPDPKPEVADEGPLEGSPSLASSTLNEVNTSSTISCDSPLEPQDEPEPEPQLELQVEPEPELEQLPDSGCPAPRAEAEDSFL

Molecule `Cc1ccc(NC(=O)c2ccc(CN3CCN(C)CC3)cc2)cc1Nc1nccc(-c2cccnc2)[n+]1[Pt-2]1([Cl])[NH2+]C2CCCCC2[NH2+]1` (centres unmarked) [1b, oxaliplatin-imatinib] returned a Percent control in test [1] of 0.1%.
Same read-out and setting: the figure for `C#Cc1cccc(Nc2c3cc(OCCOC)c(OCCOC)cc3nc[n+]2[Pt@SP2-2]([NH3+])([NH3+])[Cl])c1` [2a, cisplatin-erlotinib] is 85%.
As for `C#Cc1cccc(Nc2ncnc3cc(OCCOC)c(OCCOC)cc23)c1` [Erlotinib], the remaining activity at 10 µM in test [2] is 9.9%; in test [3], 100%; in test [4], 23.7%; in test [5], 100%; in test [6], 10.7%; in test [7] it was 4.2%.
With `Cc1ccc(NC(=O)c2ccc(CN3CCN(C)CC3)cc2)cc1Nc1nccc(-c2cccnc2)n1` [Imatinib, reference compound], the remaining activity at 10 µM in test [2] came out at 100%; in test [4], 0.1%.
Take `COc1cc2c(Nc3ccc(Br)cc3F)ncnc2cc1OCC1CCN(C)CC1` [Vandetanib, reference compound]: the remaining activity at 10 µM in test [3] amounted to 100%; in test [5], 9.9%; in test [6] it was 7.8%; in test [7], 0.5%.
